Data as given in patent US20230075170A1, “NOVEL SALTS OF NILOTINIB AND POLYMORPHIC FORMS THEREOF” (CIPLA LIMITED, priority 2020, published 2023).

Experiments:
[1] = Solubility (statement only); assay type: physicochemical
[2] = Hygroscopicity (statement only); assay type: physicochemical
[3] = Stability towards moisture and humidity (statement only); assay type: physicochemical
[4] = Chemical stability on storage (temperature and relative humidity)
Source text: Conditions evaluated include temperature and relative humidity (RH).

[5] = 25 ± 2° C./60 ± 5% RH, 0 months
[6] = 25 ± 2° C./60 ± 5% RH, 2 months
[7] = 25 ± 2° C./60 ± 5% RH, 3 months

Substance: Nilotinib D-malate
- solubility in physiologically acceptable solvents [1]: readily soluble
- hygroscopicity [2]: not hygroscopic
- stability towards moisture and humidity [3]: relatively stable

Substance: Nilotinib D-tartrate
- hygroscopicity [2]: not hygroscopic
- 5- methyl isomer impurity (NMT 3 ppm) ([4]; 2 to 8° C., 0 months): 0.6 ppm
- Total impurities (NMT 0.4%) ([4]; 2 to 8° C., 0 months): 0.01%
- XRPD ([4]; 2 to 8° C., 0 months): Form C1
- 5- methyl isomer impurity (NMT 3 ppm) ([4]; 2 to 8° C., 1 month): 0.5 ppm
- XRPD ([4]; 2 to 8° C., 1 month): Stable
- 5- methyl isomer impurity (NMT 3 ppm) ([4]; 2 to 8° C., 2 months): 0.7 ppm
- XRPD ([4]; 2 to 8° C., 2 months): Stable
- 5- methyl isomer impurity (NMT 3 ppm) ([4]; 2 to 8° C., 3 months): 1.1 ppm
- Total impurities (NMT 0.4%) ([4]; 2 to 8° C., 3 months): 0.05%
- XRPD ([4]; 2 to 8° C., 3 months): Stable
- 5- methyl isomer impurity (NMT 3 ppm) [4, 5]: 0.6 ppm
- Total impurities (NMT 0.4%) [4, 5]: 0.01%
- XRPD [4, 5]: Form C1
- 5- methyl isomer impurity (NMT 3 ppm) ([4]; 25 ± 2° C./60 ± 5% RH, 1 month): 0.5 ppm
- XRPD ([4]; 25 ± 2° C./60 ± 5% RH, 1 month): Stable
- 5- methyl isomer impurity (NMT 3 ppm) [4, 6]: 0.7 ppm
- XRPD [4, 6]: Stable
- 5- methyl isomer impurity (NMT 3 ppm) [4, 7]: 1.1 ppm
- Total impurities (NMT 0.4%) [4, 7]: 0.04%
- XRPD [4, 7]: Stable
- chemical stability / long term storage stability ([4]; temperature and relative humidity (RH)): chemically more stable
- stability towards moisture and humidity [3]: relatively stable
